# Legend:
# [1] = In vitro intrinsic clearance in microsomes (Assay 3), cynomolgus monkey; assay type: in vitro ADME; conditions: pH 7.4; heading: Assay 3 - Microsomal Cl, Cyno; cynomolgus monkey female microsomes, 0.5 uM compound, 0.5 mg/mL protein
# Experimental: (§1) Determination of In Vitro Intrinsic Clearance in Microsomes
# (§2) NADP regeneration buffer for use in incubations was prepared fresh on the assay day. It contained 7.8 mg glucose-6-phosphate (mono-sodium salt), 1.7 mg NADP and 6 Units glucose-6-phosphate dehydrogenase per 1 mL of 2% sodium bicarbonate. Microsomes (human, female; cynomolgus monkey, female; dog, female; rat, female) were prepared in pH 7.4 phosphate buffer and contained 0.625 mg protein/mL. Unless stated, all subsequent steps were performed by a Tecan Genesis 150/8 RSP. A 1.25 mM stock solution of the compounds was prepared in Acetonitrile/water (1:1). 25 ul of the 1.25 mM stock solution was added to 600 ul of Acetonitrile/water (1:1) to give a 50 uM solution. For each species, the 50 uM solutions (10 uL) were added to microsomes (790 uL) in a microplate (Porvair, 96 deepwell, square).
# (§3) 400 uL of the microsomal solution containing the compound was transferred to a microplate (Porvair, 96 deepwell, round) and was pre-warmed at 37° C. for five minutes prior to initiation of incubations. All incubations were initiated by addition of 100 uL of NADP regeneration system to the pre-warmed microsomes. The mixtures were incubated at 37° C. in a Techne heating block. Following 0, 3, 6, 12 and 30 minutes incubation, 20 uL aliquots were taken and added to 100 uL of acetonitrile containing internal standard.
# (§4) For determination of the rate of metabolism, incubations were performed at a compound concentration of 0.5 uM and a protein concentration of 0.5 mg/mL. The concentration of solvent in the incubation was 0.5%.
# (§5) Test compound concentrations were determined by LC/MS/MS; results were reported as analyte:internal standard peak area ratios.
# (§6) The rate of disappearance was calculated by fitting a single exponential decay to the concentration-time curve using Excel and intrinsic clearance was calculated using the following formula: [formula] Results
# [2] = In vitro intrinsic clearance in microsomes (Assay 3), human; assay type: in vitro ADME; conditions: pH 7.4; heading: Assay 3 - Microsomal Cl; human female microsomes, 0.5 uM compound, 0.5 mg/mL protein
# Experimental: as §1, §2, §3, §4, §5, §6
# [3] = In vitro intrinsic clearance in microsomes (Assay 3), rat; assay type: in vitro ADME; conditions: pH 7.4; heading: Assay 3 - Microsomal Cl; rat female microsomes, 0.5 uM compound, 0.5 mg/mL protein
# Experimental: as §1, §2, §3, §4, §5, §6
# [4] = In vitro intrinsic clearance in microsomes (Assay 3), dog; assay type: in vitro ADME; conditions: pH 7.4; heading: Assay 3 - Microsomal Cl; dog female microsomes, 0.5 uM compound, 0.5 mg/mL protein
# Experimental: as §1, §2, §3, §4, §5, §6
# [5] = target: T1, human recombinant oxytocin receptors (Homo sapiens, UniProt P30559); assay: Oxytocin binding assay, [3H]-oxytocin competition on CHO membranes (Assay 2); conditions: ~2.4 nM [3H]-oxytocin, Cheng-Prusoff, read-out: pKi (Assay 2) (converted)
# T1 construct: expressed in transfected cells; host or cells: CHO cells (membrane preparation)
# T1 sequence (P30559 1-389): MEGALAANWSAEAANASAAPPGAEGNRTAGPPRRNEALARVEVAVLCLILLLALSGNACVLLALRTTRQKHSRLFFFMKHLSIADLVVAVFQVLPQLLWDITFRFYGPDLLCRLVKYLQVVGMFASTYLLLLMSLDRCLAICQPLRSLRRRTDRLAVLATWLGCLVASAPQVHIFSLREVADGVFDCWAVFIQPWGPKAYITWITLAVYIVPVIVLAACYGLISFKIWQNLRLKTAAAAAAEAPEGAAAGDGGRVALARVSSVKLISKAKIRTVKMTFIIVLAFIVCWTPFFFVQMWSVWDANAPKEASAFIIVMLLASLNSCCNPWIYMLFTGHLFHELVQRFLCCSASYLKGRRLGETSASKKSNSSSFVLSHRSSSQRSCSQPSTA
# Experimental: Membranes were prepared from CHO cells expressing human recombinant oxytocin receptors. The membrane preparation was frozen in aliquots at −70° C. until used.
# Membranes (˜50 ug) were incubated in 200 ul of assay buffer (50 mM Tris, 10 mM MgCl2, and 0.1% bovine serum albumin, pH 7.5) containing ˜2.4 nM of [3H]-oxytocin in the absence (total binding) or presence (non-specific binding) of 1 uM unlabeled oxytocin and increasing concentrations of the compounds in Examples 1 and 2 or comparator compounds. Incubations were performed at room temperature for 60 minutes. The reactions were stopped with 3 ml of ice cold buffer and filtered through Whatman GF/C filter paper presoaked in 0.3% polyethylenimine. The filters were washed 4 times with 3 ml buffer using a Brandel cell harvester. The filters were counted in 3 ml Ready Safe scintillation fluid (Beckman).
# Specific binding represented approximately 90% of total binding.
# IC50 values were determined from competition binding experiments using non-linear regression analysis (GraphPad) and converted to Ki using the method of Cheng and Prusoff, 1974. Data are reported as mean values.
# [6] = target: T2, recombinant human Oxytocin-1 (hOT) receptor (Homo sapiens, UniProt P30559); assay: Determination of antagonist affinity at human Oxytocin-1 receptors using FLIPR (Assay 1); assay type: cell-based; conditions: CHO-hOT cells, FLIPR calcium response, oxytocin at EC80; read-out: fpki (Assay 1)
# T2 construct: expressed in transfected cells
# T2 sequence (P30559 1-389): T1 sequence (P30559 1-389)
# Experimental: Determination of Antagonist Affinity at Human Oxytocin-1 Receptors using FLIPR
# Adherent Chinese Hamster Ovary (CHO) cells, stably expressing the recombinant human Oxytocin-1 (hOT) receptor, were maintained in culture in DMEM:F12 medium (Sigma, cat no D6421), supplemented with 10% heat inactivated foetal calf serum (Gibco/lnvitrogen, cat. no.01000-147), 2 mM L-glutamine (Gibco/lnvitrogen, cat. no. 25030-024) and 0.2 mg/ml G418 (Gibco/lnvitrogen, cat no. 10131-027). Cells were grown as monolayers under 95%:5% air:CO2 at 37° C. and passaged every 3-4 days using TrypLE™ Express (Gibco/lnvitrogen, cat no. 12604-013).
# Measurement of [Ca^2+]1 using the FLIPR™
# CHO-hOT cells were seeded into black walled clear-base 384-well plates (Nunc) at a density of 10,000 cells per well in culture medium as described above and maintained overnight (95%:5% air:CO2 at 37° C.). After removal of culture medium, cells were incubated for 1 h at 37° C. in Tyrode's medium (NaCl, 145 mM; KCl, 2.5 mM; HEPES, 10 mM; Glucose, 10 mM; MgCl2, 1.2 mM; CaCl2, 1.5 mM) containing probenacid (0.7 mg/ml), the cytoplasmic calcium indicator, Fluo-4 (4 uM; Teflabs, USA) and the quenching agent Brilliant Black (250 uM; Molecular Devices, UK). Cells were then incubated for an additional 30min at 37° C. with either buffer alone or buffer containing OT antagonist, before being placed into a FLIPR™ (Molecular Devices, UK) to monitor cell fluorescence (λex=488 nm, λEM=540 nm) before and after the addition of a submaximal concentration of oxytocin (EC80).
# Functional responses using FLIPR were analysed using Activity Base Version 5.0.10.
SMILES,microsomal CLint at 0.5 uM [1],microsomal CLint at 0.5 uM [2],microsomal CLint at 0.5 uM [3],microsomal CLint at 0.5 uM [4],Ki [5],Ki [6]
"CC(C)C[C@@H]1C(=O)N[C@H](C2Cc3ccccc3C2)C(=O)N1[C@@H](C(=O)N(C)C)c1ccc2[nH]ncc2c1 [Comparator compound X, (2R)-2-[(3R,6R)-3-(2,3-dihydro-1H-inden-2-yl)-6-isobutyl-2,5-dioxopiperazin-1-yl]-2-(1H-indazol-5-yl)-N,N-dimethylethanamide, reference compound]",> 31 mL/min/g,> 31 mL/min/g,9 to 15 mL/min/g,16 to 20 mL/min/g,,
"CC[C@H](C)[C@@H]1C(=O)N[C@H](C2Cc3ccccc3C2)C(=O)N1[C@@H](C(=O)NC)c1ccc2c(cnn2C)c1 [Example 1, (2R)-2-{(3R,6R)-3-(2,3-Dihydro-1H-inden-2-yl)-6-[(1S)-1-methylpropyl]-2,5-dioxo-1-piperazinyl}-N-methyl-2-(1-methyl-1H-indazol-5-yl)ethanamide]",9 to 15 mL/min/g,1 to 8 mL/min/g,1 to 8 mL/min/g,1 to 8 mL/min/g,0.0398 to 0.126 nM,2 to 3.16 nM
"CC(C)C[C@@H]1C(=O)N[C@H](C2Cc3ccccc3C2)C(=O)N1[C@@H](C(=O)N(C)C)c1ccc(F)cc1F [Comparator compound Y, (2R)-2-(2,4-difluorophenyl)-2-[(3R,6R)-3-(2,3-dihydro-1H-inden-2-yl)-6-isobutyl-2,5-dioxopiperazin-1-yl]-N,N-dimethylethanamide, reference compound]",21 to 30 mL/min/g,16 to 20 mL/min/g,1 to 8 mL/min/g,1 to 8 mL/min/g,0.0398 to 0.126 nM,2 to 3.16 nM
"CC[C@H](C)[C@@H]1C(=O)N[C@H](C2Cc3ccccc3C2)C(=O)N1[C@@H](C(=O)N(C)C)c1ccc2c(cnn2C)c1 [Example 2, (2R)-2-{(3R,6R)-3-(2,3-Dihydro-1H-inden-2-yl)-6-[(1S)-1-methylpropyl]-2,5-dioxo-1-piperazinyl}-N,N-dimethyl-2-(1-methyl-1H-indazol-5-yl)ethanamide]",9 to 15 mL/min/g,1 to 8 mL/min/g,1 to 8 mL/min/g,1 to 8 mL/min/g,0.0398 to 0.126 nM,2 to 3.16 nM
